Results from patent US20210261569A1, “FUSED HETEROCYCLIC DERIVATIVES HAVING SELECTIVE BACE1 INHIBITORY ACTIVITY” (Shionogi & Co., Ltd., priority 2018, published 2021).

Experiments:
[1] = target: T1, recombinant BACE2 protein (Homo sapiens, UniProt Q9Y5Z0); assay: BACE2 biochemical FRET based assay; settings: pH 5.0, 450 min at room temperature
T1 construct: recombinant BACE2 protein in a final concentration of 0.4 μg/mL
T1 sequence (Q9Y5Z0 63-518): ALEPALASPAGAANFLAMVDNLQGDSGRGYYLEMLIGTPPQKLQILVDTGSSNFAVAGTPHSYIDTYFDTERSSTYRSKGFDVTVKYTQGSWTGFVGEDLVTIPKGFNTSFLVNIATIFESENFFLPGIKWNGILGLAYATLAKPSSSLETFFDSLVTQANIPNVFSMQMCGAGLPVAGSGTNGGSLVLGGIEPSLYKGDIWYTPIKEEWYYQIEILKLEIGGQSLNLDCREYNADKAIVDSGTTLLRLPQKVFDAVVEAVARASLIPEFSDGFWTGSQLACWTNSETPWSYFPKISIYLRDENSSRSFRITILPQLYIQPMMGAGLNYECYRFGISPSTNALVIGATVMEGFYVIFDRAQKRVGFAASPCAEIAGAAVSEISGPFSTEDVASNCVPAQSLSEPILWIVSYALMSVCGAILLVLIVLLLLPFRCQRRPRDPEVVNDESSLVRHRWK
Description: (§1) This assay is a Fluorescence Resonance Energy Transfer Assay (FRET) based assay. The substrate for this assay contains the ‘Swedish’ Lys-Met/Asn-Leu mutation of the amyloid precursor protein (APP) beta-secretase cleavage site. This substrate also contains two fluorophores: (7-methoxycoumarin-4-yl) acetic acid (Mca) is a fluorescent donor with excitation wavelength at 320 nm and emission at 405 nm and 2,4-dinitrophenol (Dnp) is a proprietary quencher acceptor. […] Upon cleavage by the beta-secretase, the fluorophore Mca is separated from the quenching group Dnp, restoring the full fluorescence yield of the donor. The increase in fluorescence is linearly related to the rate of proteolysis.
Briefly in a 384-well format recombinant BACE2 protein in a final concentration of 0.4 μg/mL was incubated for 450 minutes at room temperature with 10 μM substrate in incubation buffer (final concentrations: 33.3 mM Citrate buffer pH 5.0, 0.033% PEG, 2% DMSO) in the absence or presence of compound. Next the amount of proteolysis was directly measured by fluorescence measurement at T=0 and T=450 (excitation at 320 nm and emission at 405 nm). Results were expressed in RFU (Relative Fluorescence Units), as difference between T450 and T0.
(§2) A best-fit curve was fitted by a minimum sum of squares method to the plot of % Controlmin versus compound concentration. From this an IC50 value (inhibitory concentration causing 50% inhibition of activity) can be obtained.

[2] = target: T2, recombinant BACE1 protein (Homo sapiens, UniProt P56817); assay: BACE1 biochemical FRET based assay; settings: for Selectivity: BACE2 IC50 relative to BACE1 IC50; for IC50: FRET, pH 5.0, 450 min at room temperature
T2 construct: recombinant BACE1 protein in a final concentration of 0.04 μg/mL
Description: as §1, with “this assay is an APP derived 13 amino acids peptide that contains the” for “this assay contains the”, “protein (APP) beta-site secretase cleavage site.” for “protein (APP) beta-secretase cleavage site.”, “cleavage by BACE1, the fluorophore” for “cleavage by the beta-secretase, the fluorophore”
Briefly in a 384-well format recombinant BACE1 protein in a final concentration of 0.04 μg/mL was incubated for 450 minutes at room temperature with 10 μm substrate in incubation buffer (final concentrations: 33.3 mM Citrate buffer pH 5.0, 0.033% PEG, 3% DMSO) in the absence or presence of compound. Next the amount of proteolysis was directly measured by fluorescence measurement at T=0′-120′ and T=450′ (excitation at 320 nm and emission at 405 nm). Results were expressed in RFU (Relative Fluorescence Units), as difference between T450 and Tx (Tx is chosen depending on the reaction speed between 0 and 120 minutes).
as §2

[3] = target: T3, P-gp (MDR1 expressing LLC-PK1 cells) (Homo sapiens, UniProt P08183); assay: P-gp substrate test; type: in vitro ADME; settings: MDR1 expressing LLC-PK1 cells vs parent LLC-PK1 cells
T3 construct: host or cells: LLC-PK1 (porcine kidney) cells
Protocol: 1. MDR1 expressing LLC-PK1 cells and its parent cells were routinely cultured in Medium A (Medium 199 (Invitrogen) supplemented with 10% FBS (Invitrogen), gentamycin (0.05 mg/mL, Invitrogen) and hygromycin B (100 μg/mL, Invitrogen)) at 37° C. under 5% CO2/95% 02 gasses. For the transport experiments, these cells were seeded on Transwell (Registered trademark) insert (96-well, pore size: 0.4 μm, Coaster) at a density of 1.4×10^4 cells/insert and added Medium B (Medium 199 supplemented with 10% FBS and gentamycin at 0.05 mg/mL) to the feeder tray. These cells were incubated in a CO2 incubator (5% CO2/95% 02 gasses, 37° C.) and replace apical and basolateral culture medium every 48-72 hr after seeding. These cells were used between 4 and 6 days after seeding. 2. The medium in the culture insert seeded with MDR1 expressing cells or parent cells were removed by aspiration and rinsed by HBSS. The apical side (140 μL) or basolateral side (175 μL) was replaced with transport buffer containing reference substrates and the present invention and then an aliquot (50 μL) of transport buffer in the donor side was collected to estimate initial concentration of reference substrate and the present invention. After incubation for designed time at 37° C., an aliquot (50 μL) of transport buffer in the donor and receiver side were collected. Assay was performed by duplicate or triplicate. 3. Reference substrate and the present invention in the aliquot was quantified by LC/MS/MS.
Permeated amounts across monolayers of MDR1 expressing and parent cells were determined, and permeation coefficients (Pe) were calculated using Excel 2003 from the following equitation:
Pe (cm/sec)=Permeated amount (pmol)/area of cell membrane (cm^2)/initial concentration (nM)/incubation time (sec) Where, permeated amount was calculated from permeation concentration (nM, concentration of the receiver side) of the substance after incubation for the defined time (sec) multiplied by volume. (mL) and area of cell membrane was used 0.1433 (cm2). The efflux ratio was calculated using the following equation:
Efflux Ratio=Basolateral-to-Apical Pe/Apical-to-Basolateral Pe
The net flux was calculated using the following equation:
Net flux=Efflux Ratio in MDR1 expressing cells/Efflux Ratio in parent cells

[4] = target: T4, human ether-a-go-go related gene (hERG) channel (Homo sapiens, UniProt Q12809); assay: hERG test (whole cell patch clamp, QPatch); type: cell-based; settings: CHO cells expressing hERG, tail peak current
T4 construct: expressed in transfected cells; host or cells: CHO cells
Description: For the purpose of assessing risk of an electrocardiogram QT interval prolongation, effects on delayed rectifier K+ current (IKr), which plays an important role in the ventricular repolarization process of the compound of the present invention, was studied using CHO cells expressing human ether-a-go-go related gene (hERG) channel.
A cell was retained at a membrane potential of −80 mV by whole cell patch clamp method using an automated patch clamp system (QPatch; Sophion Bioscience A/S). After application of leak potential at −50 mV, IKr induced by depolarization pulse stimulation at +20 mV for 2 seconds and, further, repolarization pulse stimulation at −50 mV for 2 seconds was recorded.
After the generated current was stabilized, extracellular solution (NaCl: 145 mmol/L, KCl: 4 mmol/L, CaCl2:2 mmol/L MgCl2:1 mmol/L, 1 mmol/L, HEPES (4-(2-hydroxyethyl)-1-piperazineethanesulfonic acid: 10 mmol/L, glucose:10 mmol/L pH=7.4) in which the compound of the present invention have been dissolved at an objective concentration was applied to the cell under the room temperature condition for 10 minutes. From the recording IKr, an absolute value of the tail peak current was measured based on the current value at the resting membrane potential using an analysis software (QPatch assay software; Sophion Bioscience A/S). Further, the % inhibition relative to the tail peak current before application of the compound of the present invention was calculated, and compared with the vehicle-applied group (0.1% dimethyl sulfoxide solution) to assess influence of the compound of the present invention on IKr.

Metabolic stability test = type: in vitro ADME; settings: human liver microsomes 0.5 mg protein/mL, NADPH, 37° C.
Protocol: Using a commercially available pooled human liver microsomes, a compound of the present invention was reacted for a constant time, a remaining rate was calculated by comparing a reacted sample and an unreacted sample, thereby, a degree of metabolism in liver was assessed.
A reaction was performed (oxidative reaction) at 37° C. for 0 minute or 30 minutes in the presence of 1 mmol/L NADPH in 0.2 mL of a buffer (50 mmol/L Tris-HCl pH 7.4, 150 mmol/L potassium chloride, 10 mmol/L magnesium chloride) containing 0.5 mg protein/mL of human liver microsomes. After the reaction, 50 μL of the reaction solution was added to 100 μL of a methanol/acetonitrile=1/1 (v/v), mixed and centrifuged at 3000 rpm for 15 minutes. The compound of the present invention in the supernatant was quantified by LC/MS/MS or solid phase extraction (SPE)/MS, and a remaining amount of the compound of the present invention after the reaction was calculated, letting a compound amount at 0 minute reaction time to be 100%.

T2 sequence (P56817 46-501): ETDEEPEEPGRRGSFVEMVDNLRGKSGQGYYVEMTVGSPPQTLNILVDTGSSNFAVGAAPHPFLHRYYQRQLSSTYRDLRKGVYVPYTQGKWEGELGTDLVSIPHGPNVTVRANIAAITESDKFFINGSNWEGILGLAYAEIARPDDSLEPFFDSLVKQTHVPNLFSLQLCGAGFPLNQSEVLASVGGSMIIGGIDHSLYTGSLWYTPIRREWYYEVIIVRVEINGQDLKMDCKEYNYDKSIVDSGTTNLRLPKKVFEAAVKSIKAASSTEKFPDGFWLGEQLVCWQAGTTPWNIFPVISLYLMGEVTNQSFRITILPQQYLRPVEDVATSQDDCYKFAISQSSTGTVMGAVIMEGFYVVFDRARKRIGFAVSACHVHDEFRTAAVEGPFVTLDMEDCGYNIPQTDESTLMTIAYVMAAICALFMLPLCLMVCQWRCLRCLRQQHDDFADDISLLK
T3 sequence (P08183 whole entry): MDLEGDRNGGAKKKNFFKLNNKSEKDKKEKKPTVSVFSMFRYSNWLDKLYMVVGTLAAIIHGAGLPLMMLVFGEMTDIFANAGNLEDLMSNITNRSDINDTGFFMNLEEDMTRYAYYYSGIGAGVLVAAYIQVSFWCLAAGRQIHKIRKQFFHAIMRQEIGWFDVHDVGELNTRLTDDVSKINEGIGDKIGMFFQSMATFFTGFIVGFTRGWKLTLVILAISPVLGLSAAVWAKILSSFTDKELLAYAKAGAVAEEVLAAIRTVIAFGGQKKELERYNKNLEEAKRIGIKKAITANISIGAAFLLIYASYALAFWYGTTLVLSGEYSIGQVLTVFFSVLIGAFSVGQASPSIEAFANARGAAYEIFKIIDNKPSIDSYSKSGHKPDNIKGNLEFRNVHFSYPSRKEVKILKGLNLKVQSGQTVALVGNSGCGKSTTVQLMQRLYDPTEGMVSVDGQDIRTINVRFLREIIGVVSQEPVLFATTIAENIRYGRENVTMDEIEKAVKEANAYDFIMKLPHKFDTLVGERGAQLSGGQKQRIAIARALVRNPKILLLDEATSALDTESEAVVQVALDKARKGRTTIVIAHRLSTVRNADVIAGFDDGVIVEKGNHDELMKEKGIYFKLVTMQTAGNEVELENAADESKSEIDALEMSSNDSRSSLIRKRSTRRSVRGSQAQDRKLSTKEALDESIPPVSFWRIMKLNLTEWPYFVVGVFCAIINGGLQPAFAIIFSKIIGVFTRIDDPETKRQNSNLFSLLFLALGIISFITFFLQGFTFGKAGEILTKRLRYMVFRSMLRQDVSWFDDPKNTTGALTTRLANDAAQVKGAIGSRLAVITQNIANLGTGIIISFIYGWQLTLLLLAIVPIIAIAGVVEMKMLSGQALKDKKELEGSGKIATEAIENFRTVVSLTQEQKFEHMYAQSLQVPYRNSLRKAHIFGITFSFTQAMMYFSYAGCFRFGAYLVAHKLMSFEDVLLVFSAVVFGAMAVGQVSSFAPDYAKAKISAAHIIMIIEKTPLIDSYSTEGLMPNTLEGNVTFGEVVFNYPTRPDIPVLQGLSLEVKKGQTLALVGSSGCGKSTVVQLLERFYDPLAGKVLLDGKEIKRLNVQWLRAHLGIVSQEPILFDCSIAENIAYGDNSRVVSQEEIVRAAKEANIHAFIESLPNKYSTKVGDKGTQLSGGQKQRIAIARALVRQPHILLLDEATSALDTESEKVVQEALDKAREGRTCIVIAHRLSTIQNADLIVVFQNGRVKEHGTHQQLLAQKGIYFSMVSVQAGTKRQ
T4 sequence (Q12809 whole entry): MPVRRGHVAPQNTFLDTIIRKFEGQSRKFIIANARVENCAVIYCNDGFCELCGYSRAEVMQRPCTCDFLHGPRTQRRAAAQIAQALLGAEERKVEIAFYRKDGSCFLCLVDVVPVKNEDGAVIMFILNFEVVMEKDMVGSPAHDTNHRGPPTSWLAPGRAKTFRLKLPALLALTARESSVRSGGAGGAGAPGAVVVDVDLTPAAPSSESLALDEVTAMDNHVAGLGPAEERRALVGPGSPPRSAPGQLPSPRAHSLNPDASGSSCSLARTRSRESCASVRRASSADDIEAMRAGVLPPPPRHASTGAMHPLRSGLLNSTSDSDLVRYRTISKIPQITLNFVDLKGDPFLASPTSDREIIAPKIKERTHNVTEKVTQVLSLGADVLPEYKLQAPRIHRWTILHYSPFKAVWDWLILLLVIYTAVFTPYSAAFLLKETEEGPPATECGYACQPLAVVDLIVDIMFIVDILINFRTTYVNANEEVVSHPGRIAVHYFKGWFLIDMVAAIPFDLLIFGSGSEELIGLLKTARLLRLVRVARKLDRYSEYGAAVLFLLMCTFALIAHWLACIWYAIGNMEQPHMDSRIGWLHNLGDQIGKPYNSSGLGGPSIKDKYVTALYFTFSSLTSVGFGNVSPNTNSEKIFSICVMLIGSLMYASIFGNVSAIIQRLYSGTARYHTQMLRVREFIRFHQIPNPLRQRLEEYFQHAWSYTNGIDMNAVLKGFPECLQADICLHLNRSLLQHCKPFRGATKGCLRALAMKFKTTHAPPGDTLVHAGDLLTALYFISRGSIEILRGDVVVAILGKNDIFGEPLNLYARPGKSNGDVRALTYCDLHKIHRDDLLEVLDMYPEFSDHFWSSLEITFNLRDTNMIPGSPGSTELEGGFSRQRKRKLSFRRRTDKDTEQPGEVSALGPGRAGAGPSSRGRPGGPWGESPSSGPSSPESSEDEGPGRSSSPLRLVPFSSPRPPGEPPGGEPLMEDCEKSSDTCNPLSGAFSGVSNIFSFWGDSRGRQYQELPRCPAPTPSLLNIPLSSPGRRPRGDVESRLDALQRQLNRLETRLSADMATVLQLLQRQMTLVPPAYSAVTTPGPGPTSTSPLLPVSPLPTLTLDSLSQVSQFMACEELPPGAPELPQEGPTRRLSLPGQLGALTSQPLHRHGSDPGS

IC50 [1] [nM] | Selectivity [2] | IC50 [2] [nM] | P-gp ER ratio [3] | Remaining rate (%) at 30 min (Metabolic stability test) [%] | Compound | hERG inhibition (%) at 3 μM [4] [%]
45.7 | 38.1 | 1.2 | – | – | C[C@]1(c2cc(NC(=O)c3ccc(C#N)cn3)ccc2F)N=C(N)O[C@@H]2CO[C@@H](CC(F)F)[C@@H]21 [Compound I-018] | –
245 | 60.2 | 4.07 | – | – | C[C@]1(c2cc(NC(=O)c3cnc(OCF)cn3)ccc2F)N=C(N)O[C@@H]2CO[C@@H](CC(F)F)[C@@H]21 [Compound I-019] | –
316 | 37.1 | 8.51 | – | – | C[C@]1(c2cc(NC(=O)c3cnc(OCF)cn3)ccc2F)N=C(N)O[C@@H]2CO[C@@H](CCF)[C@@H]21 [Compound I-021] | –
661 | 27.5 | 24 | – | – | C[C@]1(c2cc(NC(=O)c3cnc(OCF)cn3)ccc2F)N=C(N)O[C@@H]2CO[C@@H](C(F)F)[C@@H]21 [Compound I-022] | –
245 | 51.2 | 4.79 | – | – | CC[C@@H]1OC[C@H]2OC(N)=N[C@](C)(c3cc(NC(=O)c4cnc(OCF)cn4)ccc3F)[C@@H]12 [Compound I-023] | –
11.7 | 9.3 | 1.26 | – | – | CC(C)CCC[C@@H]1OC[C@H]2OC(N)=N[C@](C)(c3cc(NC(=O)c4cnc(OCF)cn4)ccc3F)[C@@H]12 [Compound I-025] | –
589 | 87.1 | 6.76 | – | – | CC(C)C[C@@H]1OC[C@H]2OC(N)=N[C@](C)(c3cc(NC(=O)c4cnc(OCF)cn4)ccc3F)[C@@H]12 [Compound I-028] | –
4370 | 191 | 22.9 | – | – | CC(C)C[C@@H]1OC[C@H]2OC(N)=N[C@](C)(c3cc(NC(=O)c4cnc(OC[C@@H](C)F)cn4)ccc3F)[C@@H]12 [Compound I-029] | –
10000 | 151 | 66.1 | – | – | C[C@@H](F)COc1cnc(C(=O)Nc2ccc(F)c([C@@]3(C)N=C(N)O[C@@H]4CO[C@@H](C(F)(F)F)[C@@H]43)c2)cn1 [Compound I-030] | –

The next lines start with the compound.

Compound | IC50 [1] [nM] | Selectivity [2] | IC50 [2] [nM] | P-gp ER ratio [3] | Remaining rate (%) at 30 min (Metabolic stability test) [%] | hERG inhibition (%) at 3 μM [4] [%]
Cn1cc([C@@H]2OC[C@H]3OC(N)=N[C@](C)(c4cc(NC(=O)c5cnc(OCF)cn5)ccc4F)[C@H]32)cn1 [Compound I-014] | 10000 | 223 | 44.7 | – | – | –
C[C@]1(c2cc(NC(=O)c3ccc(C#N)cn3)ccc2F)N=C(N)O[C@@H]2CO[C@@H](C(F)(F)F)[C@@H]21 [Compound I-016] | 355 | 62.3 | 5.7 | – | – | –
C[C@]1(c2cc(NC(=O)c3ccc(C#N)cn3)ccc2F)N=C(N)O[C@@H]2CO[C@@H](CCF)[C@@H]21 [Compound I-020] | 46.8 | 21.4 | 2.19 | – | – | –
Cc1noc(C)c1[C@@H]1OC[C@H]2OC(N)=N[C@](C)(c3cc(NC(=O)c4cnc(OCF)cn4)ccc3F)[C@H]21 [Compound I-031] | 3390 | 282 | 12 | – | – | –
C[C@H]1OC[C@H]2[C@@H]1OC(N)=N[C@]2(CF)c1cc(NC(=O)c2cnc(-n3cncn3)cn2)ccc1F [Compound I-051] | 316 | 63.1 | 5.01 | – | – | –
C[C@H]1OC[C@H]2[C@@H]1OC(N)=N[C@]2(CF)c1cc(NC(=O)c2cnc(OCF)cn2)cc(F)c1F [Compound I-070] | – | – | – | 3.8 | 52 | 9.4
C[C@@H]1OC[C@H]2[C@@H]1OC(N)=N[C@]2(CF)c1cc(NC(=O)c2cnc(OC(F)F)cn2)ccc1F [Compound I-087] | – | – | – | 5.8 | 85 | 28.7
NC1=N[C@](CF)(c2cc(NC(=O)c3cnc(OCF)cn3)ccc2F)[C@@H]2COCC[C@H]2O1 [II-017] | 178 | 23.4 | 7.6 | – | – | –
